Test results taken from patent US6723897B2, “Methods for controlling gibberellin levels” (Monsanto Technology, LLC, priority 1998, dated 2004).

Experiments:
[1] = system: wild-type soybean line A3237; assay: Experiment I greenhouse test, seed imbibition, wild-type soybean; details: 0.25 mg/ml; seeds imbibed 5 hours
Experimental: Compounds are first prepared as 25 mg/ml solutions in ethanol as described above, and then diluted into 40 ml of water to prepare the final 0.25 mg/ml treatment solutions. Visual observations on solubilities (milky, clear, etc.) of the treatment solutions are noted. The treatment solutions are divided into two 20 ml portions, each in 50 ml plastic centrifuge tubes. In addition to treating seeds with solutions containing the test compounds, untreated seeds and seeds imbibed in ethanol-water solution (300 μl ethanol in 30 mls of water) are also included in this experiment as controls. […]
(§1) After imbibition, seeds are removed from the test tubes, placed on wax paper to dry, and planted in bread pans containing farm soil amended with fertilizer at 20 seeds/pan. Seeds are covered with 0.5″ of vermiculite. Pans are transferred to the greenhouse, which had day/night temperatures of 86/68° F. (30/20° C.), and subirrigated. Illumination is at a light intensity of 300-400 μmolm^−2s^−1 photosynthetic photon flux; 16 hours light/8 hours dark. Subsequent waterings are also through sub-irrigation until the test is terminated three weeks later. Observations included the number of dwarf, intermediate, and tall plants; plant height; uniformity of rescue; and any visual effects.

[2] = system: constitutively GA-deficient transgenic dwarf soybean line 719; assay: Experiment I greenhouse test, seed imbibition, GA-deficient soybean; format: in vivo, Glycine max; parameters: Observation on Transgenic Line 719: key: −1: treated plants are shorter as compared to untreated plants; 0: treated plants had the same stature as untreated plants; 1: treated plants are slightly elongated as compared to untreated plants; 2: treated plants are moderately elongated as compared to untreated plants; 3: treated plants are highly elongated as compared to untreated plants; 4: treated plants are extremely elongated as compared to untreated plants; details: 0.25 mg/ml; for effect in both the constitutive transgenic dwarf and wild-type soybean lines: imbibition, lines 719 and A3237; for Observation on Transgenic Line 719: seeds imbibed 5 hours
Excerpt: Seeds are covered with 0.5″ of vermiculite.

[3] = Particulate material present in solutions after mixing; format: physicochemical; details: for Particulate material present, 100X Diln w/water: 0.25 mg/ml compound in water; for solubility in water during imbibition: 0.25 mg/ml treatment solutions; for Particulate material present, Initial Mixing: 25 mg/ml in absolute ethanol
Experimental: Each of the compounds noted above is weighed to the nearest 0.1 mg in a pre-tarred 1.5-ml polypropylene vial with a screw-top lid. Absolute ethanol is added to the weighed powder to prepare a 25 mg/ml solution. Solutions are thoroughly mixed using a vortex mixer. A stainless steel spatula is used to crush any particulate material remaining after extensive mixing. Vials are left overnight at room temperature, and then remixed to form the concentrated ethanol stock solutions. The presence of undissolved material is noted throughout this procedure.

[4] = system: constitutively GA-deficient transgenic dwarf soybeans (line 719); assay: Summary of first two greenhouse experiments, rescue of GA-deficient soybeans; format: in vivo, Glycine max; parameters: key: +: transgenic soybeans are rescued; 0: transgenic soybeans are not rescued; details: 0.25 mg/ml solution (ethanol-water)
Experimental: (§2) Compounds are first prepared as 25 mg/ml solutions in ethanol as described above, and then diluted into 40 ml of water to prepare the final 0.25 mg/ml treatment solutions. Visual observations on solubilities (milky, clear, etc.) of the treatment solutions are noted. The treatment solutions are divided into two 20 ml portions, each in 50 ml plastic centrifuge tubes. In addition to treating seeds with solutions containing the test compounds, untreated seeds and seeds imbibed in ethanol-water solution (300 μl ethanol in 30 mls of water) are also included in this experiment as controls. In the latter case, 20 seeds are imbibed in 30 mls of solution for six hours.
as §1, with “Two soybean varieties are selected for testing: constitutively GA-deficient transgenic dwarf soybean line 719 (plasmid pMON29801, constitutive FMV promoter/asCPScc; which is a mixture of 719−2 and 719+17), and A3237, the wild-type parent material. […] After” for “After”
(§3) All compounds are tested at final concentrations of 0.25, 0.025, and 0.0025 mg/ml except for GA9, which is tested at 0.125, 0.0125, and 0.00125 mg/ml. (The compounds are tested in Experiment I at only one concentration, i.e., 0.25 mg/ml). Test tubes contained […] of ethanol solution per tube. Final volumes are made up to 30 ml with deionized water. After shaking, the treatment solutions (15 ml each) are transferred to each of two 50 ml test tubes. Treatments 1 to 27 are performed on wild-type line A3237; treatments 28 to 54 are performed on constitutively GA-deficient transgenic dwarf soybean line 719 (a mixture of 719−2 and 719+17). Twenty seeds are used in each treatment. Dry seed, ethanol/water-imbibed seed (1% ethanol in water, v/v), and water-imbibed seeds are included as controls. Seeds are imbibed for 6 hours in the test solutions, then planted in bread pans containing Metromix 350 (The Scotts Company, Marysville, Ohio), and covered with 0.5″ Metro-mix. Covered pans are transferred to the greenhouse and subirrigated. Illumination is at a light intensity of 300-400 μmolm^−2s^−1 photosynthetic photon flux; 16 hours light/8 hours dark. Subsequent waterings are also through sub-irrigation until the test is terminated three weeks later. Observations included the number of dwarf, intermediate, and tall plants; plant height; uniformity of rescue; and any visual effects. Digital photographs are also taken.

wild-type A3237 soybean = assay: Hilum treatment of soybean seeds, seedling growth and development, wild-type soybean; format: in vivo, Glycine max; parameters: key to Emergence timing / Hypocotyl length (6 DAP) / 1st internode length (12 DAP) / 3rd internode length (20 DAP): pos: emergence faster/stem segment longer than controls; 0: emergence timing/stem segment length similar to controls; neg: emergence slower/stem segment shorter than controls; details: for Lowest rate where biological activity is observed, 1st internode length (10 DAP) / Lowest rate where biological activity is observed, emergence timing / Lowest rate where biological activity is observed, hypocotyl length (5 DAP): rate response; for 1st internode length (12 DAP) / Emergence timing / Hypocotyl length (6 DAP): single rate per compound 8.3-16.5 μg/seed
Experimental: (§4) In the previous experiments, the effect of various GA compounds on transgenic, GA-deficient and wild-type soybean is evaluated by treating seeds with these compounds via imbibition. Several of these compounds are not completely soluble in water, which limited the interpretation of their utility in rescuing GA-deficient dwarf plants. The purpose of this experiment is to reevaluate selected, previously tested compounds, and additional compounds, by introducing them to the seed via the hilum. As shown by the results presented below, direct application of small quantities of GA compounds dissolved in an organic solvent to the hilum is an effective method of treating soybean seeds. As in the previously described experiments, comparison is made between activity on GA-deficient soybean seedlings and normal (wild-type) seedlings. […] soybean seeds are supplied by Asgrow Seed Company (Des Moines, Iowa). Seed of GA-deficient transgenic soybean line 719 is created by transformation of […] soybean with pMON29801 (FMV/antisense CPScc). Fifth generation seed (R5) is used for these experiments. […] When multiple droplets are applied, each 1 μl droplet is allowed to dry before subsequent droplets are added. Ethanol minus compound is used a treatment control. […] (29° C.) and 75° F. (24° C.), respectively. Emergence timing is measured by counting the number of emerged seedlings at different times after planting. Emergence is defined as the presence of cotyledons raised to soil level or above. […] To assess the ability of a seed treatment to deliver biological activity beyond the first internode, measurements are taken on selected treatments after prolonged growth and development.

[5] = system: GA-deficient transgenic soybean line 719 (R5); assay: Hilum treatment of soybean seeds, seedling growth and development, GA-deficient soybean; format: in vivo, Glycine max; parameters: key to Emergence timing / Hypocotyl length (6 DAP) / 1st internode length (12 DAP) / 3rd internode length (20 DAP) / 2nd internode length (12 DAP): pos: emergence faster/stem segment longer than controls; 0: emergence timing/stem segment length similar to controls; neg: emergence slower/stem segment shorter than controls; details: for Lowest rate where biological activity is observed, 1st internode length (10 DAP) / Lowest rate where biological activity is observed, emergence timing / Lowest rate where biological activity is observed, hypocotyl length (5 DAP) / 1st internode length (12 DAP) / Emergence timing / Hypocotyl length (6 DAP): L719, hilum treatment; for Lowest rate where biological activity is observed, 1st internode length (10 DAP) / Lowest rate where biological activity is observed, emergence timing / Lowest rate where biological activity is observed, hypocotyl length (5 DAP): rate response; for 1st internode length (12 DAP) / Emergence timing / Hypocotyl length (6 DAP): single rate per compound 8.3-16.5 μg/seed; for activity on line 719 in terms of emergence timing and hypocotyl length: single rate, hilum, concentration that does not affect normal plant tissue
Experimental: as §4

[6] = system: wild-type soybeans (line A3237); assay: Summary of first two greenhouse experiments, elongation of wild-type soybeans; details: 0.25 mg/ml solution (ethanol-water)
Experimental: as §2
as §1, with “Two soybean varieties are selected for testing: constitutively GA-deficient transgenic dwarf soybean line 719 (plasmid pMON29801, constitutive FMV promoter/asCPScc; which is a mixture of 719−2 and 719+17), and A3237, the wild-type parent material. […] After” for “After”
as §3

Compound	Observation on Wild-Type Line A3237 [1]	Particulate material present, 100X Diln w/water [3]	solubility in water during imbibition [3]	effect in both the constitutive transgenic dwarf and wild-type soybean lines [2]	Observation on Transgenic Line 719 [2]	Particulate material present, Initial Mixing [3]	Rescue of GA-deficient soybeans [4]	Lowest rate where biological activity is observed, 1st internode length (10 DAP) (wild-type A3237 soybean)	Lowest rate where biological activity is observed, emergence timing (wild-type A3237 soybean)	Lowest rate where biological activity is observed, hypocotyl length (5 DAP) (wild-type A3237 soybean)	1st internode length (12 DAP) (wild-type A3237 soybean)	Emergence timing (wild-type A3237 soybean)	Hypocotyl length (6 DAP) (wild-type A3237 soybean)	Lowest rate where biological activity is observed, 1st internode length (10 DAP) [5]	Lowest rate where biological activity is observed, emergence timing [5]	Lowest rate where biological activity is observed, hypocotyl length (5 DAP) [5]	1st internode length (12 DAP) [5]	Emergence timing [5]	Hypocotyl length (6 DAP) [5]	activity on line 719 in terms of emergence timing and hypocotyl length [5]	further results
C=C1C[C@@]23CC[C@H]4[C@@](C)(CCC[C@@]4(C)C(=O)O)[C@@H]2CC[C@]1(O)C3 (single isomer, unassigned; ent-7) [steviol]	0	YES	less soluble in water during imbibition	no substantial activity	0	YES	0	>100 μg/seed	>100 μg/seed	>100 μg/seed	0	0	0	>100 μg/seed	10 μg/seed	1 μg/seed	0	pos	pos	biologically active	–
C=C1C[C@]23C[C@H]1CC[C@H]2[C@]1(C)CCC[C@@](C)(C(=O)O)[C@H]1[C@@H]3C=O [GA12-aldehyde]	0	YES	less soluble in water during imbibition	no substantial activity	0	–	0	>100 μg/seed	>100 μg/seed	>100 μg/seed	0	0	0	>100 μg/seed	1 μg/seed	1 μg/seed	0	pos	pos	biologically active	–
C=C1C[C@@]23CC[C@@H]4C(C)(C)CCC[C@@]4(C)[C@@H]2CC[C@@H]1C3 [kaurene]	0	YES	less soluble in water during imbibition	no substantial activity	0	YES	0	–	–	–	0	0	0	–	–	–	0	pos	0	–	Particulate material present, O/N Incubation ([3]; 25 mg/ml in ethanol, overnight at room temperature, remixed): YES; Elongation of wild-type soybeans [6]: 0

The next lines start with results.

Observation on Wild-Type Line A3237 [1]	Particulate material present, 100X Diln w/water [3]	solubility in water during imbibition [3]	Compound	effect in both the constitutive transgenic dwarf and wild-type soybean lines [2]	Observation on Transgenic Line 719 [2]	Particulate material present, Initial Mixing [3]	Rescue of GA-deficient soybeans [4]	Lowest rate where biological activity is observed, 1st internode length (10 DAP) (wild-type A3237 soybean)	Lowest rate where biological activity is observed, emergence timing (wild-type A3237 soybean)	Lowest rate where biological activity is observed, hypocotyl length (5 DAP) (wild-type A3237 soybean)	1st internode length (12 DAP) (wild-type A3237 soybean)	Emergence timing (wild-type A3237 soybean)	Hypocotyl length (6 DAP) (wild-type A3237 soybean)	Lowest rate where biological activity is observed, 1st internode length (10 DAP) [5]	Lowest rate where biological activity is observed, emergence timing [5]	Lowest rate where biological activity is observed, hypocotyl length (5 DAP) [5]	1st internode length (12 DAP) [5]	Emergence timing [5]	Hypocotyl length (6 DAP) [5]	activity on line 719 in terms of emergence timing and hypocotyl length [5]	further results
1	–	less soluble in water during imbibition	C=C1C[C@]23C[C@H]1CC[C@H]2[C@@]12CC[C@H](O)[C@@](C)(C(=O)O1)[C@H]2[C@@H]3C(=O)OC [GA4 methyl ester]	slight to medium elongation	1	–	0	–	–	–	–	–	–	–	–	–	–	–	–	–	–
1	YES	–	C=C1C[C@]23C[C@H]1CC[C@H]2[C@@]12C=C[C@H](O)[C@@](C)(C(=O)O1)[C@H]2[C@@H]3C(=O)OC [GA7 methyl ester]	slight to medium elongation	2	–	0	–	–	–	–	–	–	–	–	–	–	–	–	–	–
